Test results published in patent publication US20150105252A1, “SUBSTITUTED PYRAZOLES AS HERBICIDES” (E I DU PONT DE NEMOURS AND COMPANY, priority 2013, published 2015).

Experiments:
morningglory = test: Test A postemergence; type: in vivo, Ipomoea spp.; details: Postemergence
Procedure, shortened: (§1)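 Growth medium: loam soil blended with sand. Preemergence treatment used a directed soil spray right after planting; postemergence treatment targeted seedlings at one to two leaves (2–10 cm height). Response was judged by eye relative to untreated plants about 10 days later on a 0–100 control scale.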

johnsongrass = test: Test C preemergence; type: in vivo, Sorghum halepense
Procedure, shortened: (§2)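 Seeds were sown in a loam soil–sand blend and sprayed preemergence with compounds formulated in a non-phytotoxic solvent mixture containing surfactant. Postemergence plants, grown in peat/vermiculite medium to 2–18 cm (1- to 4-leaf stage), received the same formulation. After 13 to 15 days in a greenhouse, injury was rated visually against controls (0 = no effect, 100 = complete control).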

soybean = test: Test C preemergence; type: in vivo, Glycine max
Procedure, shortened: as §2

sedge, umbrella = test: Test B flood; type: in vivo, Cyperus difformis; details: 250 g ai/ha, visual rating on 0 to 100 scale (0 no effect, 100 complete control), 13 to 15 days
Procedure, shortened: (§3)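 Flooded-pot test: compound dosed into 3 cm of standing water above soil when plants had two leaves. Visual control ratings (0–100) versus untreated plants after 13–15 d.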

foxtail, giant [1] = test: Test A postemergence; type: in vivo, Setaria faberii
Procedure, shortened: as §1

galium = test: Test C preemergence; type: in vivo, Galium aparine
Procedure, shortened: as §2

nutsedge, yellow = test: Test C preemergence; type: in vivo, Cyperus esculentus
Procedure, shortened: as §2

foxtail, giant [2] = test: Test A preemergence; type: in vivo, Setaria faberii; details: preemergence; for Foxtail, Giant plant response rating (0 to 100 scale): 125 g ai/ha, visual injury approx. 10 days after treatment; for Foxtail, Giant plant response rating: 500 g ai/ha, visual injury after approx. 10 days, 0 to 100 scale (0 no effect, 100 complete control)
Procedure, shortened: as §1

barnyardgrass = test: Test C preemergence; type: in vivo, Echinochloa crus-galli; details: preemergence; for Plant response rating, Barnyardgrass: 125 g ai/ha, scale 0 to 100, 0 = no effect, 100 = complete control
Procedure, shortened: as §2

ragweed = test: Test C preemergence; type: in vivo, Ambrosia elation
Procedure, shortened: as §2

wheat = test: Test A preemergence; type: in vivo, Triticum aestivum; details: preemergence; for Wheat plant response rating (0 to 100 scale): 125 g ai/ha, visual injury approx. 10 days after treatment; for Wheat plant response rating: 500 g ai/ha, visual injury after approx. 10 days, 0 to 100 scale (0 no effect, 100 complete control)
Procedure, shortened: as §1

ryegrass, Italian = test: Test C preemergence; type: in vivo, Lolium multiflorum
Procedure, shortened: as §2

ducksalad = test: Test B flood; type: in vivo, Heteranthera limosa; details: 250 g ai/ha, visual rating on 0 to 100 scale (0 no effect, 100 complete control), 13 to 15 days
Procedure, shortened: as §3

corn = test: Test A postemergence; type: in vivo, Zea mays
Procedure, shortened: as §1

[3] = 125 g ai/ha, 0 to 100 scale, 0 no effect, 100 complete control
[4] = 500 g ai/ha, 0 to 100 scale (0 no effect, 100 complete control)
[5] = preemergence, 31 g ai/ha, visual rating, scale 0 to 100 (0 no effect, 100 complete control), 13 to 15 days
[6] = preemergence, 62 g ai/ha, scale 0 to 100 (0 no effect, 100 complete control), 13 to 15 days
[7] = preemergence, 125 g ai/ha, 13 to 15 days, scale 0 to 100, 0 = no effect, 100 = complete control
[8] = preemergence, 250 g ai/ha, scale 0 to 100, 0 is no effect, 100 is complete control
[9] = Postemergence, 500 g ai/ha, 0 to 100 scale (0 no effect, 100 complete control)
[10] = postemergence, 125 g ai/ha, about 10 days, visual rating on 0 to 100 scale (0 no effect, 100 complete control)
[11] = 31 g ai/ha, visual rating, scale 0 to 100 (0 no effect, 100 complete control), 13 to 15 days
[12] = 62 g ai/ha, scale 0 to 100 (0 no effect, 100 complete control), 13 to 15 days
[13] = 250 g ai/ha, scale 0 to 100, 0 is no effect, 100 is complete control
[14] = Preemergence, rate head not shown (block before 16 g ai/ha), scale 0 to 100
[15] = Postemergence, 125 g ai/ha, 0 to 100 scale, 0 no effect, 100 complete control

Row | SMILES | Morningglory plant response rating (morningglory; [3]) | Morningglory plant response rating (morningglory; [4]) | Johnsongrass plant response rating (johnsongrass; [6]) | Plant response rating, Johnsongrass (johnsongrass; [7]) | Johnsongrass plant response rating (johnsongrass; [8]) | Soybean plant response rating (soybean; [6]) | Plant response rating, Soybean (soybean; [7]) | Soybean plant response rating (soybean; [8]) | Plant response rating, Sedge, Umbrella (sedge, umbrella) | Foxtail, Giant plant response rating (foxtail, giant [1]; [9]) | Galium plant response rating (galium; [6]) | Plant response rating, Galium (galium; [7]) | Galium plant response rating (galium; [8]) | Nutsedge, Yellow plant response rating (nutsedge, yellow; [6]) | Plant response rating, Nutsedge, Yellow (nutsedge, yellow; [7]) | Nutsedge, Yellow plant response rating (nutsedge, yellow; [8]) | Foxtail, Giant plant response rating (0 to 100 scale) (foxtail, giant [2]) | Foxtail, Giant plant response rating (foxtail, giant [2]) | Barnyardgrass plant response rating (barnyardgrass; [11]) | Barnyardgrass plant response rating (barnyardgrass; [12]) | other results
1 | CCc1cc(C(=O)NCC2CC2)nn1Cc1ccnc(C(F)(F)F)c1 [Compound 199] | 90 | 100 | 70 | 98 | 100 | 55 | 90 | 95 | 90 | 90 | 100 | 100 | 100 | 45 | 80 | 85 | 100 | 100 | 95 | 100 | Johnsongrass plant response rating (johnsongrass; [5]): 45; Soybean plant response rating (soybean; [5]): 30; Foxtail, Giant plant response rating (foxtail, giant [1]; [10]): 90; Galium plant response rating (galium; [5]): 40; Nutsedge, Yellow plant response rating (nutsedge, yellow; [5]): 30; Plant response rating, Barnyardgrass (barnyardgrass; 13 to 15 days): 100; Barnyardgrass plant response rating (barnyardgrass; [13]): 100; Ragweed plant response rating (ragweed; [5]): 30; Ragweed plant response rating (ragweed; [6]): 85; Plant response rating, Ragweed (ragweed; [7]): 95; Ragweed plant response rating (ragweed; [8]): 95; Wheat plant response rating (0 to 100 scale) (wheat): 90; Wheat plant response rating (wheat): 100; Ryegrass, Italian plant response rating (ryegrass, Italian; [5]): 40; Ryegrass, Italian plant response rating (ryegrass, Italian; [6]): 85; Plant response rating, Ryegrass, Italian (ryegrass, Italian; [7]): 90; Ryegrass, Italian plant response rating (ryegrass, Italian; [8]): 90; Plant response rating, Ducksalad (ducksalad): 90; Corn plant response rating (corn; [9]): 90; Corn plant response rating (corn; [10]): 50
2 | CCc1cc(C(=O)NC2CC2)nn1Cc1ccnc(OCC(F)(F)F)c1 [Compound 200] | 100 | 100 | 80 | 90 | 98 | 70 | 70 | 85 | 90 | 100 | 100 | 100 | 100 | 25 | 40 | 60 | 100 | 100 | 45 | 70 | Johnsongrass plant response rating (johnsongrass; [5]): 50; Soybean plant response rating (soybean; [5]): 50; Foxtail, Giant plant response rating (foxtail, giant [1]; [10]): 100; Galium plant response rating (galium; [5]): 85; Nutsedge, Yellow plant response rating (nutsedge, yellow; [5]): 20; Plant response rating, Barnyardgrass (barnyardgrass; 13 to 15 days): 90; Barnyardgrass plant response rating (barnyardgrass; [13]): 98; Ragweed plant response rating (ragweed; [5]): 5; Ragweed plant response rating (ragweed; [6]): 35; Plant response rating, Ragweed (ragweed; [7]): 70; Ragweed plant response rating (ragweed; [8]): 85; Wheat plant response rating (0 to 100 scale) (wheat): 0; Wheat plant response rating (wheat): 100; Ryegrass, Italian plant response rating (ryegrass, Italian; [5]): 0; Ryegrass, Italian plant response rating (ryegrass, Italian; [6]): 90; Plant response rating, Ryegrass, Italian (ryegrass, Italian; [7]): 90; Ryegrass, Italian plant response rating (ryegrass, Italian; [8]): 95; Plant response rating, Ducksalad (ducksalad): 80; Corn plant response rating (corn; [9]): 100; Corn plant response rating (corn; [10]): 80
3 | CCc1cc(C(=O)NC2CC2)nn1Cc1cc(C(F)(F)C(F)(F)F)nn1C [Compound 226] | 70 | 100 | 55 | 100 | 85 | 70 | 95 | 100 | 90 | 90 | 90 | 80 | 90 | 5 | 5 | 20 | 100 | 100 | 10 | 65 | Plant response rating, Johnsongrass (johnsongrass; [14]): 10; Plant response rating, Soybean (soybean; [14]): 10; Foxtail, Giant plant response rating (foxtail, giant [1]; [15]): 80; Plant response rating, Galium (galium; [14]): 0; Plant response rating, Nutsedge, Yellow (nutsedge, yellow; [14]): 0; Plant response rating, Barnyardgrass (barnyardgrass; 13 to 15 days): 95; Barnyardgrass plant response rating (barnyardgrass; [13]): 100; Plant response rating, Ragweed (ragweed; [14]): 90; Ragweed plant response rating (ragweed; [6]): 100; Plant response rating, Ragweed (ragweed; [7]): 95; Ragweed plant response rating (ragweed; [8]): 98; Wheat plant response rating (0 to 100 scale) (wheat): 40; Plant response rating, Ryegrass, Italian (ryegrass, Italian; [14]): 0; Ryegrass, Italian plant response rating (ryegrass, Italian; [6]): 5; Plant response rating, Ryegrass, Italian (ryegrass, Italian; [7]): 35; Ryegrass, Italian plant response rating (ryegrass, Italian; [8]): 80; Plant response rating, Ducksalad (ducksalad): 90; Corn plant response rating (corn; [15]): 50; Corn plant response rating (corn; [9]): 80
